The values that follow come from ChEMBL document CHEMBL1144086, “Tryptamine derived amides and acetogenins from the seeds of Rollinia mucosa” (J Nat Prod, 1999).

The nature of data set [1]: (§1) Toxicity in Artemia salina. The data set is classed as organism-based. The settings on record: in vivo.
In a further data set the test system is A549. Put plainly: Cytotoxicity against human A549 cells. The data set is classed as functional. The following applies: read-out: ED50 (the source's name).
A further data set deals with MCF7. Put plainly: Cytotoxicity against human MCF7 cells. The data set is classed as functional. The following applies: read-out: ED50 (the source's name).
For a further data set, the system named is HT-29. Put plainly: Cytotoxicity against human HT-29 cells. The data set is classed as functional. The following applies: read-out: ED50 (the source's name).
Data set [2] in a line: Cytotoxicity against human […] cells. The data set is classed as functional. The settings on record: read-out: ED50 (the source's name).
The test system of the next data set is PC-3. Put plainly: Cytotoxicity against human PC-3 cells. The data set is classed as functional. The settings on record: read-out: ED50 (the source's name).
The subject of a further data set is MIA PaCa-2. The experiment in a line: Cytotoxicity against human PaCa2 cells. The data set is classed as functional. The following applies: read-out: ED50 (the source's name).
A further data set deals with Artemia salina. The data set is described as §1. The data set is classed as organism-based. The following applies: in vivo.

Each structure is given as a SMILES string. Converted amounts (≈) assume the structure as drawn. A value given as a limit tells only on which side of the number the result lay.

Take `CCCCCCCCCCCCCCCCCCCCCC(=O)NCCc1c[nH]c2ccccc12`: in data set [1], the LC50 is greater than 500 µg/mL. The EC50 (in the data set with A549; with MCF7; in the data set with HT-29; in data set [2]; with PC-3; in the data set with MIA PaCa-2) was greater than 10 µg/mL throughout.

In data set [1], `CCCCCCCCCCCCCCCCCCCCCCCCCC(=O)NCCc1c[nH]c2ccccc12` came in with an LC50 greater than 500 µg/mL. The EC50 (in the data set with A549; in the data set with MCF7; with HT-29; in data set [2]; in the data set with PC-3; in the data set with MIA PaCa-2) was greater than 10 µg/mL in each case.

Consider `CCCCCCCCCCCCCCCCCCCCCCC(=O)NCCc1c[nH]c2ccccc12`, for which the LC50 in data set [1] is greater than 500 µg/mL. In addition, the EC50 (in the data set with A549; in the data set on MCF7; in the data set on HT-29; in data set [2]; in the data set with PC-3; with MIA PaCa-2) was greater than 10 µg/mL throughout.

`CCCCCCCCCCCCCCCC(=O)NCCc1c[nH]c2ccccc12` had an LC50 in data set [1] greater than 500 µg/mL. Also, the EC50 (with A549; in the data set with MCF7; with HT-29; in data set [2]; with PC-3; in the data set on MIA PaCa-2) was greater than 10 µg/mL in each case.

Take `CCCCCCCCCCCCCCCCCC(=O)NCCc1c[nH]c2ccccc12`: the LC50 in data set [1] is greater than 500 µg/mL. Besides, the EC50 (in the data set with A549; in the data set on MCF7; with HT-29; in data set [2]; in the data set with PC-3; in the data set with MIA PaCa-2) was greater than 10 µg/mL each time.

As to `CCCCCCCCCCCCCCCCCCCC(=O)NCCc1c[nH]c2ccccc12`, the LC50 in data set [1] was greater than 500 µg/mL. The EC50 (in the data set on A549; in the data set with MCF7; in the data set on HT-29; in data set [2]; with PC-3; in the data set with MIA PaCa-2) was greater than 10 µg/mL each time.

For the compound `CCCCCCCCCCCCCCCCCCCCCCCC(=O)NCCc1c[nH]c2ccccc12`, the LC50 in data set [1] is greater than 500 µg/mL. For the same compound, the EC50 (in the data set with A549; in the data set on MCF7; in the data set with HT-29; in data set [2]; with PC-3; in the data set on MIA PaCa-2) was greater than 10 µg/mL throughout.

`CCCCCCCCCCCCCCCCCCCCCCCCC(=O)NCCc1c[nH]c2ccccc12` returned an LC50 in data set [1] greater than 500 µg/mL. Besides, the EC50 (in the data set on A549; with MCF7; in the data set with HT-29; in data set [2]; in the data set with PC-3; in the data set on MIA PaCa-2) was greater than 10 µg/mL in each case.

As for `CCCCCCCCCC[C@H](O)[C@H]1CC[C@H]([C@H]2CC[C@H]([C@H](O)CCCCCCCCCCCCC3=C[C@H](C)OC3=O)O2)O1` [BULLANIN], in the data set on Artemia salina, the LC50 is listed as 1.6 ×10⁻² ug/ml. In addition, the EC50 in the data set with A549 was 0.47 µg/mL (≈ 0.774 µM); in the data set with MCF7, 1.35 µg/mL (≈ 2.22 µM); with HT-29, 1.69 µg/mL (≈ 2.78 µM); in data set [2], less than 0.001 µg/mL; in the data set with PC-3, less than 0.001 µg/mL; in the data set on MIA PaCa-2, 1.92 µg/mL (≈ 3.16 µM).

`COc1cccc2c1C(=O)c1c(O)c3c(c(O)c1C2=O)C[C@@](O)(C(=O)CO)C[C@@H]3O[C@H]1C[C@H](N)[C@H](O)[C@H](C)O1` [DOXORUBICIN]: the EC50 was determined as 0.89 µg/mL (≈ 1.64 µM) in the data set on A549; 3.6 µg/mL (≈ 6.62 µM) in the data set with MCF7; 3.7 µg/mL (≈ 6.81 µM) in the data set with HT-29; 0.0083 µg/mL (≈ 0.0153 µM) in data set [2]; 0.0056 µg/mL (≈ 0.0103 µM) with PC-3; 0.0011 µg/mL (≈ 0.00202 µM) in the data set with MIA PaCa-2.

`CCCCCCCCCC[C@H](O)[C@@H]1CC[C@H]([C@H]2CC[C@@H]([C@H](O)CCCCCCCCCCCCC3=C[C@H](C)OC3=O)O2)O1` [MEMBRANACIN]: in the data set on Artemia salina, the LC50 is reported as 5 ×10⁻² ug/ml. Besides, the EC50 is 0.4 µg/mL (≈ 0.659 µM) with A549; 2.18 µg/mL (≈ 3.59 µM) with MCF7; 3.04 µg/mL (≈ 5.01 µM) in the data set with HT-29; less than 0.001 µg/mL in data set [2]; less than 0.001 µg/mL in the data set with PC-3; 2.1 µg/mL (≈ 3.46 µM) with MIA PaCa-2.
